Data published in patent US20160215305A1, “Process of Fermenting A Lignocellulosic Biomass” (priority 2015, published 2016).
“And” between values parts separate entries of the source, which are not always exact repeats. Identical values can stand only once.

System: S. cerevisiae
Test: Batch fermentation of amino acid detoxified loblolly pine hydrolysates by Baker yeast
Format: cell-based, Saccharomyces cerevisiae
Conditions: pH 6.0, 60° C.; for CEtOH, ethanol final concentration at 48 h / CHMF, percentage of HMF consumed at 48 h / QEtOH, volumetric ethanol productivity in the first 6 h / RG, glucose consumption rate in the first 6 h / RM, mannose consumption rate in the first 6 h / YEtOH, ethanol yield from total glucose and mannose at 48 h: hydrolysates detoxified with amino acid 0.2% w/v, 2 hours
From the text: Loblolly pine (Pinus taeda) wood chips (1.0×1.0 cm, L×W) were collected by Forest Products Laboratory at Auburn University, located in Auburn, Ala. Dilute acid pretreatment was used to produce biomass hydrolysates in a 4.0 L Parr batch reactor (Parr Instrument Co., Moline, Ill.) as previously described (Lai, C. H., Tu, M. B., Li, M., Yu, S. Y. 2014. Remarkable solvent and extractable lignin effects on enzymatic digestibility of organosolv pretreated hardwood. Bioresource Technology, 156, 92-98). Briefly, wood chips (400 grams, dry weight) were soaked in 1% (w/w) sulfuric acid overnight (7:1 liquor/solid ratio) prior to the pretreatment, and then loaded into a reactor and treated at 170° C. for 60 minutes.
To achieve higher ethanol titer in fermentation, loblolly pine hydrolysates were concentrated to approximately one-third of its original volume using a rotary evaporator (IKA RV10 basic) at 40° C. and 60 rotations per minute (rpm). The hydrolysates were first adjusted to pH 4.0 before evaporation. After the concentration, the sugar contents of the hydrolysates were analyzed by HPLC.
[…] The detoxification experiments were performed in a 250 mL flask and placed in a temperature-controlled water batch.
Baker yeast (Fleischmann's), S. cerevisiae, was used for all the fermentation experiments in this study. The yeast was maintained on YDP medium containing (g/L): 20 glucose, 20 peptone, 10 yeast extract and 20 agar. Isolated colony was grown in YDP liquid medium overnight and harvested as fermentation inoculum. The yeast concentration was measured using an UV-vis spectrophotometer. Inoculum of 2.0 g/L was used for all fermentation experiments.
Batch fermentation was carried out in 125 mL serum bottles containing 50 mL broths (untreated or detoxified hydrolysates, untreated or detoxified cinnamaldehyde sugar solution) without any additional nutrient supplement. All the fermentation broths were adjusted to pH 6 with NaOH or H2SO4 and sterilized by passing 0.2 μm sterile filters. After inoculation, the serum bottle was sealed with rubber stopper and aluminum seal, and equipped with cannulas for CO2 release. All fermentation experiments were incubated at 30° C., spun at 150 rpm in a shaker (E24, New Brunswick Scientific). Aliquots of samples were withdrawn at 0, 1, 3, 6, 9, 12, 24, 36 and 48 hours for the time course analysis of both starting material and products. Fermentation was carried out in duplicate. The volumetric ethanol productivity and initial consumption rate of glucose (RG) and mannose (RM) was calculated based on the sugar consumed in the first 6 h of fermentation as described previously (Cao, D. X., Tu, M. B., Xie, R., Li, J., Wu, Y. N., Adhikari, S. 2014. Inhibitory Activity of Carbonyl Compounds on Alcoholic Fermentation by Saccharomyces cerevisiae. Journal of Agricultural and Food Chemistry, 62(4), 918-926).
Ethanol, acetic acid, levulinic acid, formic acid, furfural and HMF were analyzed using an Aminex HPX-87H column (300×7.8 mm) with a refractive index detector. The elution conditions were column temperature of 45° C. and flow rate of 0.6 ml/min with 5.0 mM H2SO4 as the mobile phase in a 60 min isocratic run.

## CSCC[C@H](N)C(=O)O [Methionine, methionine]
  CEtOH, ethanol final concentration at 48 h: 3.11 ± 0.02 g/L
  CHMF, percentage of HMF consumed at 48 h: 12.78 ± 0.10%
  QEtOH, volumetric ethanol productivity in the first 6 h: 0.31 ± 0.00 g/L/h
  RG, glucose consumption rate in the first 6 h: 0.27 ± 0.01 g/L/h
  RM, mannose consumption rate in the first 6 h: 0.63 ± 0.02 g/L/h
  YEtOH, ethanol yield from total glucose and mannose at 48 h: 0.06 ± 0.00 g/g

## NCCCC[C@H](N)C(=O)O [Lysine, lysine]
  CEtOH, ethanol final concentration at 48 h: 14.40 ± 0.57 g/L
  QEtOH, volumetric ethanol productivity in the first 6 h: 0.72 ± 0.01 g/L/h
  RG, glucose consumption rate in the first 6 h: 0.80 ± 0.06 g/L/h
  RM, mannose consumption rate in the first 6 h: 1.09 ± 0.13 g/L/h
Listed as lysine
  CEtOH, ethanol final concentration at 48 h: 14.40 g/L
  RG, glucose consumption rate in the first 6 h: 0.80 g/L/h
  RM, mannose consumption rate in the first 6 h: 1.09 g/L/h

## N[C@@H](Cc1ccc(O)cc1)C(=O)O [Tyrosine, tyrosine]
  CEtOH, ethanol final concentration at 48 h: 2.16 ± 0.25 g/L
  CHMF, percentage of HMF consumed at 48 h: 12.17 ± 0.92%
  QEtOH, volumetric ethanol productivity in the first 6 h: 0.30 ± 0.02 g/L/h
  RG, glucose consumption rate in the first 6 h: 0.25 ± 0.02 g/L/h
  RM, mannose consumption rate in the first 6 h: 0.59 ± 0.05 g/L/h
  YEtOH, ethanol yield from total glucose and mannose at 48 h: 0.04 ± 0.00 g/g

## NC(=O)CC[C@H](N)C(=O)O [Glutamine, glutamine]
  CEtOH, ethanol final concentration at 48 h: 3.52 ± 0.06 g/L
  CHMF, percentage of HMF consumed at 48 h: 13.38 ± 0.99%
  QEtOH, volumetric ethanol productivity in the first 6 h: 0.40 ± 0.00 g/L/h
  RG, glucose consumption rate in the first 6 h: 0.38 ± 0.02 g/L/h
  RM, mannose consumption rate in the first 6 h: 0.73 ± 0.01 g/L/h
  YEtOH, ethanol yield from total glucose and mannose at 48 h: 0.06 ± 0.01 g/g

## CC(C)[C@H](N)C(=O)O [Valine, valine]
  CEtOH, ethanol final concentration at 48 h: 2.69 ± 0.18 g/L
  CHMF, percentage of HMF consumed at 48 h: 12.66 ± 1.50%
  QEtOH, volumetric ethanol productivity in the first 6 h: 0.32 ± 0.00 g/L/h
  RG, glucose consumption rate in the first 6 h: 0.25 ± 0.00 g/L/h
  RM, mannose consumption rate in the first 6 h: 0.49 ± 0.03 g/L/h
  YEtOH, ethanol yield from total glucose and mannose at 48 h: 0.05 ± 0.00 g/g

## NC(=O)C[C@H](N)C(=O)O [Asparagine, asparagine]
  CEtOH, ethanol final concentration at 48 h: 11.18 ± 0.15 g/L
  QEtOH, volumetric ethanol productivity in the first 6 h: 0.58 ± 0.01 g/L/h
  RG, glucose consumption rate in the first 6 h: 0.65 ± 0.01 g/L/h
  RM, mannose consumption rate in the first 6 h: 0.87 ± 0.10 g/L/h
Listed as asparagine
  CEtOH, ethanol final concentration at 48 h: 11.18 g/L
  RG, glucose consumption rate in the first 6 h: 0.65 g/L/h
  RM, mannose consumption rate in the first 6 h: 0.87 g/L/h

## CC(C)C[C@H](N)C(=O)O [Leucine, leucine]
  CEtOH, ethanol final concentration at 48 h: 2.83 ± 0.19 g/L
  CHMF, percentage of HMF consumed at 48 h: 12.84 ± 1.32%
  QEtOH, volumetric ethanol productivity in the first 6 h: 0.34 ± 0.01 g/L/h
  RG, glucose consumption rate in the first 6 h: 0.27 ± 0.04 g/L/h
  RM, mannose consumption rate in the first 6 h: 0.64 ± 0.12 g/L/h
  YEtOH, ethanol yield from total glucose and mannose at 48 h: 0.05 ± 0.00 g/g

## C[C@@H](O)[C@H](N)C(=O)O [Threonine, threonine]
  CEtOH, ethanol final concentration at 48 h: 3.96 ± 0.13 g/L
  CHMF, percentage of HMF consumed at 48 h: 16.19 ± 0.87%
  QEtOH, volumetric ethanol productivity in the first 6 h: 0.41 ± 0.01 g/L/h
  RG, glucose consumption rate in the first 6 h: 0.36 ± 0.02 g/L/h
  RM, mannose consumption rate in the first 6 h: 0.67 ± 0.03 g/L/h
  YEtOH, ethanol yield from total glucose and mannose at 48 h: 0.07 ± 0.00 g/g

## C[C@H](N)C(=O)O [Alanine, alanine]
  CEtOH, ethanol final concentration at 48 h: 2.14 ± 0.01 g/L
  CHMF, percentage of HMF consumed at 48 h: 11.03 ± 1.64%
  QEtOH, volumetric ethanol productivity in the first 6 h: 0.28 ± 0.00 g/L/h
  RG, glucose consumption rate in the first 6 h: 0.21 ± 0.02 g/L/h
  RM, mannose consumption rate in the first 6 h: 0.44 ± 0.07 g/L/h
  YEtOH, ethanol yield from total glucose and mannose at 48 h: 0.04 ± 0.00 g/g

## N=C(N)NCCC[C@H](N)C(=O)O [Arginine, arginine]
  CEtOH, ethanol final concentration at 48 h: 2.62 ± 0.03 g/L
  CHMF, percentage of HMF consumed at 48 h: 12.69 ± 0.27%
  QEtOH, volumetric ethanol productivity in the first 6 h: 0.34 ± 0.01 g/L/h
  RG, glucose consumption rate in the first 6 h: 0.29 ± 0.02 g/L/h
  RM, mannose consumption rate in the first 6 h: 0.59 ± 0.07 g/L/h
  YEtOH, ethanol yield from total glucose and mannose at 48 h: 0.05 ± 0.00 g/g

## N[C@@H](Cc1ccccc1)C(=O)O [Phenylalanine, phenylalanine]
  CEtOH, ethanol final concentration at 48 h: 1.87 ± 0.02 g/L
  CHMF, percentage of HMF consumed at 48 h: 12.69 ± 1.12%
  QEtOH, volumetric ethanol productivity in the first 6 h: 0.28 ± 0.00 g/L/h
  RG, glucose consumption rate in the first 6 h: 0.24 ± 0.01 g/L/h
  RM, mannose consumption rate in the first 6 h: 0.56 ± 0.01 g/L/h
  YEtOH, ethanol yield from total glucose and mannose at 48 h: 0.03 ± 0.00 g/g

## N[C@@H](CO)C(=O)O [Serine, serine]
  CEtOH, ethanol final concentration at 48 h: 3.87 ± 0.08 g/L
  CHMF, percentage of HMF consumed at 48 h: 15.66 ± 0.11%
  QEtOH, volumetric ethanol productivity in the first 6 h: 0.45 ± 0.00 g/L/h
  RG, glucose consumption rate in the first 6 h: 0.38 ± 0.00 g/L/h
  RM, mannose consumption rate in the first 6 h: 0.65 ± 0.13 g/L/h
  YEtOH, ethanol yield from total glucose and mannose at 48 h: 0.07 ± 0.00 g/g

## N[C@@H](Cc1c[nH]cn1)C(=O)O [Histidine, histidine]
  CEtOH, ethanol final concentration at 48 h: 23.07 ± 0.35 g/L
  QEtOH, volumetric ethanol productivity in the first 6 h: 0.78 ± 0.00 g/L/h
  RG, glucose consumption rate in the first 6 h: 0.94 ± 0.00 g/L/h
  RM, mannose consumption rate in the first 6 h: 1.02 ± 0.01 g/L/h
  YEtOH, ethanol yield from total glucose and mannose at 48 h: 0.42 ± 0.01 g/g
Listed as histidine
  CEtOH, ethanol final concentration at 48 h: 23.07 g/L
  RG, glucose consumption rate in the first 6 h: 0.94 g/L/h
  RM, mannose consumption rate in the first 6 h: 1.02 g/L/h
  YEtOH, ethanol yield from total glucose and mannose at 48 h: 0.42 g/g
2 hours detoxification
  sugar consumption rate (glucose and mannose) less than those from cysteine detoxification: 50%

## N[C@@H](CCC(=O)O)C(=O)O [Glutamate, glutamate]
  CEtOH, ethanol final concentration at 48 h: 3.63 ± 0.23 g/L
  CHMF, percentage of HMF consumed at 48 h: 15.40 ± 0.72%
  QEtOH, volumetric ethanol productivity in the first 6 h: 0.41 ± 0.01 g/L/h
  RG, glucose consumption rate in the first 6 h: 0.34 ± 0.02 g/L/h
  RM, mannose consumption rate in the first 6 h: 0.56 ± 0.03 g/L/h
  YEtOH, ethanol yield from total glucose and mannose at 48 h: 0.07 ± 0.00 g/g

## N[C@@H](CC(=O)O)C(=O)O [Aspartate, aspartate]
  CEtOH, ethanol final concentration at 48 h: 3.86 ± 0.18 g/L
  CHMF, percentage of HMF consumed at 48 h: 16.27 ± 0.30%
  QEtOH, volumetric ethanol productivity in the first 6 h: 0.47 ± 0.00 g/L/h
  RG, glucose consumption rate in the first 6 h: 0.43 ± 0.02 g/L/h
  RM, mannose consumption rate in the first 6 h: 0.90 ± 0.01 g/L/h
  YEtOH, ethanol yield from total glucose and mannose at 48 h: 0.07 ± 0.00 g/g

## O=C(O)[C@@H]1CCCN1 [Proline, proline]
  CEtOH, ethanol final concentration at 48 h: 3.12 ± 0.13 g/L
  CHMF, percentage of HMF consumed at 48 h: 13.35 ± 1.05%
  QEtOH, volumetric ethanol productivity in the first 6 h: 0.33 ± 0.00 g/L/h
  RG, glucose consumption rate in the first 6 h: 0.27 ± 0.05 g/L/h
  RM, mannose consumption rate in the first 6 h: 0.67 ± 0.18 g/L/h
  YEtOH, ethanol yield from total glucose and mannose at 48 h: 0.06 ± 0.00 g/g

## CC[C@H](C)[C@H](N)C(=O)O [Isoleucine, isoleucine]
  CEtOH, ethanol final concentration at 48 h: 5.03 ± 1.46 g/L
  CHMF, percentage of HMF consumed at 48 h: 17.36 ± 3.50%
  QEtOH, volumetric ethanol productivity in the first 6 h: 0.44 ± 0.08 g/L/h
  RG, glucose consumption rate in the first 6 h: 0.37 ± 0.02 g/L/h
  RM, mannose consumption rate in the first 6 h: 0.66 ± 0.06 g/L/h
  YEtOH, ethanol yield from total glucose and mannose at 48 h: 0.09 ± 0.03 g/g

## N[C@@H](Cc1c[nH]c2ccccc12)C(=O)O [Tryptophan, tryptophan]
  CEtOH, ethanol final concentration at 48 h: 11.59 ± 0.25 g/L
  QEtOH, volumetric ethanol productivity in the first 6 h: 0.63 ± 0.01 g/L/h
  RG, glucose consumption rate in the first 6 h: 0.69 g/L/h and 0.69 ± 0.00 g/L/h
  RM, mannose consumption rate in the first 6 h: 0.89 g/L/h and 0.89 ± 0.04 g/L/h
Listed as tryptophan
  CEtOH, ethanol final concentration at 48 h: 11.59 g/L
